# Source: PubChem BioAssay (NCI)
# Several values for one entry are separate records, joined by “and”; a condition that tells them apart may be missing. Identical values can stand only once.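 Step 1: Grow cells in 96-well plates. Step 2: Expose to compound for 48 hours at 5 concentrations. Step 3: Interpolate endpoints linearly; if unreached, use highest concentration. The concentration for 50% growth inhibition is given as GI50. The concentration for full growth arrest is given as TGI.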
# Experiments:
# Test in all cases: inhibition of tumour cell growth, NCI panel, 48 h
# [1] = tested on: HCT-15 colon
# [2] = tested on: SN12C renal
# [3] = tested on: T-47D breast
# [4] = tested on: HT29 colon
# [5] = tested on: MDA-MB-231 breast
# [6] = tested on: MALME-3M melanoma
# [7] = tested on: MDA-MB-435
# [8] = tested on: RXF 393 renal
# [9] = tested on: NCI-H460 lung
# [10] = tested on: NCI/ADR-RES ovarian
Compound,TGI [1],TGI [2],TGI [3],TGI [4],TGI [5],TGI [6],TGI [7],TGI [8],TGI [9],TGI [10],GI50 [1],GI50 [2],GI50 [3],GI50 [4],GI50 [5],GI50 [6],GI50 [7],GI50 [8],GI50 [9],GI50 [10]
O=C(O)C1C2C=CC(O2)C1C(=O)NCc1ccccn1 (stereo not given),> 100 µM,> 100 µM,> 100 µM,> 100 µM,> 100 µM,> 100 µM,> 100 µM,> 100 µM,> 100 µM,> 100 µM,–,–,–,–,–,–,–,–,–,–
O=C(OC(CNc1cc(=O)n(Cc2ccccc2)c(=O)n1Cc1ccccc1)CN1CCCC1)c1ccccc1 (stereo not given),> 100 µM,> 100 µM,> 100 µM,> 100 µM,> 100 µM,> 100 µM,> 100 µM,> 100 µM,> 100 µM,> 100 µM,> 100000 nM,> 100000 nM,18900 nM,35000 nM,75300 nM,> 100000 nM,> 100000 nM,76100 nM,> 100000 nM,> 100000 nM
COc1ccc(CN2C(=O)/C(=C\C(=O)c3ccc(OCCN4CCCCC4)cc3)c3ccccc32)cc1,3.37 µM,3.5 µM,3.29 µM,3.57 µM,4.56 µM,3.41 µM,12.3 µM,3.22 µM,22.3 µM,22.5 µM,1670 nM,1740 nM,1640 nM,1800 nM,2150 nM,1820 nM,3120 nM,1690 nM,7670 nM,3840 nM
N#CC(=C1C=CC(=NO)C=C1)c1ccccc1,12.3 µM,8.41 µM,2.99 µM,6.69 µM,5.17 µM,19.8 µM,1.65 µM,8.63 µM,6.11 µM,11.8 µM,2220 nM,2390 nM,470 nM,2160 nM,1730 nM,4920 nM,331 nM,1140 nM,1300 nM,1490 nM
O=C(Nc1nc2ccc(C(F)(F)F)cc2s1)c1cc(Cl)ccc1O,12.9 µM,> 100 µM,2.96 µM,74.7 µM,3.75 µM,4.48 µM,> 100 µM,11.1 µM,> 100 µM,> 100 µM,346 nM,353 nM,303 nM,2100 nM,704 nM,626 nM,1690 nM,1760 nM,414 nM,841 nM
CCN(CC)CCCC(CNc1ccnc2cc(Cl)ccc12)c1ccc(Cl)cc1 (stereo not given),2.1 µM and 2.62 µM,4.78 µM and 4.3 µM,3.42 µM and 4.02 µM,2.35 µM and 1.28 µM,3.21 µM and 3.32 µM,3.02 µM and 2.72 µM,2.55 µM and 0.462 µM,3.01 µM and 2.51 µM,3.95 µM and 3.82 µM,5.14 µM and 5.87 µM,535 nM and 984 nM,1960 nM and 1920 nM,1640 nM and 2060 nM,484 nM and 304 nM,1410 nM and 1540 nM,1410 nM and 1250 nM,1190 nM and 204 nM,1400 nM and 1030 nM,1900 nM and 1740 nM,2020 nM and 2130 nM
C=C1C(=O)OC2CCN3CC=C(COC(=O)C(C)(O)C4(CO4)C1C)C23 (stereo not given),> 100 µM,> 100 µM,> 100 µM,> 100 µM,> 100 µM,> 100 µM,> 100 µM,> 100 µM,> 100 µM,> 100 µM,–,–,–,–,–,–,–,–,–,–
CC(CCC=O)CCOCc1ccccc1 (stereo not given),> 100 µM,> 100 µM,> 100 µM,> 100 µM,> 100 µM,> 100 µM,> 100 µM,> 100 µM,> 100 µM,> 100 µM,–,–,–,–,–,–,–,–,–,–
CCC(C)n1ncn(-c2ccc(N3CCN(c4ccc(OCC5COC(Cn6cncn6)(c6ccc(Cl)cc6Cl)O5)cc4)CC3)cc2)c1=O (stereo not given),> 100 µM,> 100 µM,74.3 µM,> 100 µM,> 100 µM,> 100 µM,> 100 µM,0.865 µM,> 100 µM,> 100 µM,15300 nM,> 100000 nM,1270 nM,867 nM,7110 nM,46200 nM,> 100000 nM,267 nM,9620 nM,26100 nM
NC(=O)NC1C(c2ccccc2)=C1c1ccccc1,32.4 µM,35.4 µM,> 100 µM,46.1 µM,38.2 µM,61 µM,40.3 µM,14.8 µM,36 µM,27 µM,–,–,–,–,–,–,–,–,–,–
CS(=O)(=O)Nc1ccc2c(c1)oc(=O)c1ccccc12,> 100 µM,> 100 µM,> 100 µM,> 100 µM,> 100 µM,> 100 µM,> 100 µM,> 100 µM,> 100 µM,> 100 µM,–,–,–,–,–,–,–,–,–,–
COc1cc(C#CC(=O)OC/C=C/c2ccc3c(c2)OCO3)cc(OC)c1OC,78.8 µM,> 100 µM,> 100 µM,> 100 µM,79.4 µM,47.7 µM,38.1 µM,30.2 µM,77.1 µM,47.8 µM,–,–,–,–,–,–,–,–,–,–
O=C1NC(=O)C(c2cnc3ccccn23)=C1c1cn2c3c(cc(F)cc13)CN(C(=O)N1CCCCC1)CC2,66.9 µM,54.6 µM,> 69.2 µM,20 µM,33.1 µM,60.8 µM,40.3 µM,14.7 µM,29.1 µM,> 100 µM,13300 nM,9540 nM,9790 nM,723 nM,11400 nM,30700 nM,14600 nM,22.4 nM,2450 nM,19700 nM
